The source made the active and inactive calls. The rule behind the calls is not given here.
Key:
MCF7 [1] = assay: Antiproliferative activity against human MCF7 cells assessed as reduction in cell growth incubated for 48 hrs by CCK8 assay; details: MCF7, 48 h
MCF7 [2] = assay: Antiproliferative activity against human MCF7 cells assessed as reduction in cell growth incubated for 48 hrs in presence of Fer-1 by CCK8 assay; details: MCF7, 48 h
MCF-10A = assay: Cytotoxicity against human MCF-10A cells assessed as reduction in cell viability incubated for 48 hrs by CCK8 assay; assay type: cell-based
[3] = target: T1, Phospholipid hydroperoxide glutathione peroxidase GPX4 (Homo sapiens) (UniProt P36969); assay: Inhibition of GPX4 in human MCF7 cells assessed as increase in GPX4 degradation incubated for 48 hrs by Western blot analysis; assay type: cell-based; details: dose 0.1-2 µM
T1 sequence (whole entry): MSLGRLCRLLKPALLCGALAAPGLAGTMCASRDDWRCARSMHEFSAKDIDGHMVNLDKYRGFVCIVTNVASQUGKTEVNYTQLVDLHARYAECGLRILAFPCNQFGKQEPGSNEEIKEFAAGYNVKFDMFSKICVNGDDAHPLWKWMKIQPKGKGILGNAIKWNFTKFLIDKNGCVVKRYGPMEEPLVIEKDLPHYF

MCF7 [4] = assay: Induction of apoptosis in human MCF7 cells assessed as increase in cleaved caspase-9 level at 2 uM incubated for 48 hrs by Western blot analysis; assay type: functional, cell-based
[5] = target: E3 ubiquitin-protein ligase Mdm2 (Homo sapiens, UniProt Q00987); assay: Inhibition of MDM2 (unknown origin) using peptide as substrate incubated for 30 mins by fluorescence polarization assay
MCF7 [6] = assay: Induction of apoptosis in human MCF7 cells at 0.1 to 1 uM incubated for 48 hrs by annexin-V-FITC and PI staining based flow cytometry analysis; assay type: functional, cell-based; details: dose 0.1-1 µM
MCF7 [7] = assay: Induction of apoptosis in human MCF7 cells at 0.1 to 1 uM incubated for 48 hrs in presence of Fer-1 by annexin-V-FITC and PI staining based flow cytometry analysis; assay type: functional, cell-based; details: dose 0.1-1 µM

Sequence of E3 ubiquitin-protein ligase Mdm2 (Q00987 whole entry): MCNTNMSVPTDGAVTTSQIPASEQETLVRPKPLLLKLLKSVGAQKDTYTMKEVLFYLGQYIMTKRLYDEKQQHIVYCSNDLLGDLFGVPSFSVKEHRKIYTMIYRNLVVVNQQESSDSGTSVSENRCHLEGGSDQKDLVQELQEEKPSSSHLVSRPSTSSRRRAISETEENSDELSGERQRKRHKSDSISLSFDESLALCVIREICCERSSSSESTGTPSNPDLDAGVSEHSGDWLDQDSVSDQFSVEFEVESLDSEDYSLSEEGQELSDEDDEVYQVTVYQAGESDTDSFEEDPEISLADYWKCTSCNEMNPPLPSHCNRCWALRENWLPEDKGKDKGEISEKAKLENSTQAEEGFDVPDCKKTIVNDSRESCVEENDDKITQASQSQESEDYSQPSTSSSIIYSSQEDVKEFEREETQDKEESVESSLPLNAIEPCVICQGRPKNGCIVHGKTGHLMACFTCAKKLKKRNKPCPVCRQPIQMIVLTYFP

| SMILES | IC50 (MCF7 [1]) [µM] | IC50 (MCF7 [2]) [µM] | Activity (MCF-10A) | inhibition [3] | Activity (MCF7 [4]) | Ki [5] [µM] | Activity (MCF7 [6]) | Activity (MCF7 [7]) |
| --- | --- | --- | --- | --- | --- | --- | --- | --- |
| Cc1noc([C@@H]2[C@@H](c3ccccc3)[C@H](C(F)(F)F)N[C@@]23C(=O)Nc2ccc(Cl)cc23)c1[N+](=O)[O-] | 0.37 | 19.8 | Non-Toxic |  |  |  |  |  |
| Cc1noc([C@@H]2[C@@H](c3ccccc3)[C@H](C(F)(F)F)N[C@@]23C(=O)Nc2ccc(F)cc23)c1[N+](=O)[O-] | 0.21 | 15.6 | Non-Toxic |  |  |  |  |  |
| Cc1noc([C@@H]2[C@@H](c3ccc(Cl)cc3)[C@H](C(F)(F)F)N[C@@]23C(=O)Nc2ccccc23)c1[N+](=O)[O-] | 1.14 | > 20 | Non-Toxic |  |  |  |  |  |
| COc1ccc(C2=NC(c3ccc(Cl)cc3)C(c3ccc(Cl)cc3)N2C(=O)N2CCNC(=O)C2)c(OC(C)C)c1 (stereo not drawn) | 14.6 | 15.7 |  | inactive | Active |  |  |  |
| CC(=O)N1C(=O)[C@@]2(N[C@@H](C(F)(F)F)[C@H](c3ccccc3)[C@H]2c2onc(C)c2[N+](=O)[O-])c2ccccc21 | 3.23 | > 20 | Non-Toxic |  |  | > 10 |  |  |
| Cc1ccccc1[C@H]1[C@H](C(F)(F)F)N[C@@]2(C(=O)Nc3ccccc32)[C@@H]1c1onc(C)c1[N+](=O)[O-] | 3.5 | > 20 | Non-Toxic |  |  | > 10 |  |  |
| Cc1ccc2c(c1)[C@]1(N[C@@H](C(F)(F)F)[C@H](c3ccccc3)[C@H]1c1onc(C)c1[N+](=O)[O-])C(=O)N2 | 4.91 | 18.1 | Non-Toxic |  |  |  |  |  |
| Cc1noc([C@@H]2[C@@H](c3cccc(F)c3)[C@H](C(F)(F)F)N[C@@]23C(=O)Nc2ccccc23)c1[N+](=O)[O-] | 0.87 | 15.6 | Non-Toxic |  |  |  |  |  |
| Cc1noc([C@@H]2C(c3ccco3)[C@H](C(F)(F)F)N[C@@]23C(=O)Nc2ccccc23)c1[N+](=O)[O-] (single isomer, unassigned) | 1.46 | 14.3 | Non-Toxic |  |  |  |  |  |
| Cc1noc([C@@H]2[C@@H](c3ccccc3)[C@H](c3ccccc3)N[C@@]23C(=O)Nc2ccccc23)c1[N+](=O)[O-] | 5.24 | > 20 | Non-Toxic |  |  |  |  |  |
| Cc1onc(C(=O)N2CCN(C(c3ccc(Cl)cc3)c3ccc(Cl)cc3)CC2)c1[N+](=O)[O-] | 0.076 | > 20 |  |  |  |  |  |  |
| COc1ccc([C@H]2[C@H](C(F)(F)F)N[C@@]3(C(=O)Nc4ccccc43)[C@@H]2c2onc(C)c2[N+](=O)[O-])cc1OC | 4.13 | > 20 | Non-Toxic |  |  |  |  |  |
| Cc1noc([C@@H]2[C@@H](c3cc(Cl)ccc3Cl)[C@H](C(F)(F)F)N[C@@]23C(=O)Nc2ccccc23)c1[N+](=O)[O-] | 3.98 | > 20 | Non-Toxic |  |  | > 10 |  |  |
| Cc1noc([C@@H]2[C@@H](c3ccc(Cl)c(Cl)c3)[C@H](C(F)(F)F)N[C@@]23C(=O)Nc2ccccc23)c1[N+](=O)[O-] | 3.22 | > 20 | Non-Toxic |  |  |  |  |  |
| Cc1noc([C@@H]2[C@@H](c3ccc(Br)cc3)[C@H](C(F)(F)F)N[C@@]23C(=O)Nc2ccccc23)c1[N+](=O)[O-] | 3.01 | 17 | Non-Toxic |  |  |  |  |  |
| C=CCN1C(=O)[C@@]2(N[C@@H](C(F)(F)F)[C@H](c3ccccc3)[C@H]2c2onc(C)c2[N+](=O)[O-])c2ccccc21 | 3.42 | > 20 | Non-Toxic |  |  | > 10 |  |  |

| SMILES | IC50 (MCF7 [1]) [µM] | IC50 (MCF7 [2]) [µM] | Activity (MCF-10A) | inhibition [3] | Activity (MCF7 [4]) | Ki [5] [µM] | Activity (MCF7 [6]) | Activity (MCF7 [7]) |
| --- | --- | --- | --- | --- | --- | --- | --- | --- |
| Cc1noc([C@@H]2[C@@H](c3ccccc3)[C@H](C(F)(F)F)N[C@@]23C(=O)Nc2ccccc23)c1[N+](=O)[O-] | 0.38 | 17.6 | Non-Toxic |  |  |  |  |  |
| Cc1noc([C@@H]2[C@@H](c3ccccc3Br)[C@H](C(F)(F)F)N[C@@]23C(=O)Nc2ccccc23)c1[N+](=O)[O-] | 4.71 | > 20 | Non-Toxic |  |  | > 10 |  |  |
| Cc1noc([C@@H]2[C@@H](c3ccccc3Cl)[C@H](C(F)(F)F)N[C@@]23C(=O)Nc2ccccc23)c1[N+](=O)[O-] | 3.77 | > 20 | Non-Toxic |  |  | > 10 |  |  |
| Cc1noc([C@@H]2[C@@H](c3ccccc3)[C@H](C(F)(F)F)N[C@@]23C(=O)Nc2ccc(Br)cc23)c1[N+](=O)[O-] | 0.55 | 16.3 | Non-Toxic |  |  |  |  |  |
| Cc1noc([C@@H]2[C@@H](c3ccccc3)[C@H](C(F)(F)F)N[C@@]23C(=O)N(C)c2ccccc23)c1[N+](=O)[O-] | 3.52 | > 20 | Non-Toxic |  |  | > 10 |  |  |
| Cc1noc([C@@H]2[C@@H](c3ccccc3)[C@H](C(F)(F)F)N[C@@]23C(=O)Nc2cc(Br)ccc23)c1[N+](=O)[O-] | 0.17 | 13.7 | Non-Toxic |  |  |  | Active | Active |
| Cc1noc([C@@H]2[C@@H](c3ccc(C(C)C)cc3)[C@H](C(F)(F)F)N[C@@]23C(=O)Nc2ccccc23)c1[N+](=O)[O-] | 2.83 | > 20 | Non-Toxic |  |  |  |  |  |
| Cc1noc([C@@H]2[C@@H](c3cccc4ccccc34)[C@H](C(F)(F)F)N[C@@]23C(=O)Nc2ccccc23)c1[N+](=O)[O-] | 7.17 | > 20 | Non-Toxic |  |  |  |  |  |
| Cc1noc([C@@H]2[C@@H](c3ccc([N+](=O)[O-])cc3)[C@H](C(F)(F)F)N[C@@]23C(=O)Nc2ccccc23)c1[N+](=O)[O-] | 5.36 | > 20 | Non-Toxic |  |  |  |  |  |
| Cc1noc([C@@H]2[C@@H](c3cccc(Br)c3)[C@H](C(F)(F)F)N[C@@]23C(=O)Nc2ccccc23)c1[N+](=O)[O-] | 2.31 | > 20 | Non-Toxic |  |  |  |  |  |
| Cc1noc([C@@H]2[C@@H](c3ccc(F)cc3)[C@H](C(F)(F)F)N[C@@]23C(=O)Nc2ccccc23)c1[N+](=O)[O-] | 0.55 | 17.4 | Non-Toxic |  |  |  |  |  |
| Cc1noc([C@@H]2C(c3cccs3)[C@H](C(F)(F)F)N[C@@]23C(=O)Nc2ccccc23)c1[N+](=O)[O-] (single isomer, unassigned) | 1.53 | 19 | Non-Toxic |  |  |  |  |  |
| Cc1ccc([C@H]2[C@H](C(F)(F)F)N[C@@]3(C(=O)Nc4ccccc43)[C@@H]2c2onc(C)c2[N+](=O)[O-])cc1 | 2.81 | 18.8 | Non-Toxic |  |  |  |  |  |
| COc1ccccc1[C@H]1[C@H](C(F)(F)F)N[C@@]2(C(=O)Nc3ccccc32)[C@@H]1c1onc(C)c1[N+](=O)[O-] | 4.59 | > 20 | Non-Toxic |  |  | > 10 |  |  |
| Cc1noc([C@@H]2[C@@H](c3ccccc3)[C@H](C(F)(F)F)N[C@@]23C(=O)Nc2ccc([N+](=O)[O-])cc23)c1[N+](=O)[O-] | 4.75 | > 20 | Non-Toxic |  |  |  |  |  |
